Data set [1] relates to Beet Armyworm (Spodoptera exigua) ("BAW"). In words: Bioassay on Beet Armyworm (BAW), 128-well diet tray assay, percent mortality. It is filed as in vivo. The conditions noted are these: for BAW rating (percent mortality class): Beet Armyworm, 128-well diet tray assay; for pest or weed control at 50 µg/cm2: Spodoptera exigua, read-out: BAW. From the text:
(§1) Bioassays on Beet Armyworm (Spodoptera exigua) (“BAW”) and Cabbage Looper (Trichoplusia ni) (“CL”)
(§2) BAW has few effective parasites, diseases, or predators to lower its population. BAW infests many weeds, trees, grasses, legumes, and field crops. In various places, it is of economic concern upon asparagus, cotton, corn, soybeans, tobacco, alfalfa, sugar beets, peppers, tomatoes, potatoes, onions, peas, sunflowers, and citrus, among other plants. The Cabbage Looper is a member of the moth family Noctuidae. It is found throughout the world. It is attacks cabbage, cauliflower, broccoli, Brussel sprouts, tomatoes, cucumbers, potatoes, kale, turnips, mustard, peppers, eggplant, watermelons, melons, squash, cantaloupe, peas, beans, collards, lettuce, spinach, celery, parsley, beets, peas, alfalfa, soybeans, and cotton. This species is very destructive to plants due to its voracious consumption of leaves. In the case of cabbage, however, they feed not only on the wrapper leaves, but also may bore into the developing head. The larvae consume three times their weight in plant material daily. The feeding sites are marked by large accumulations of sticky, wet fecal material.
(§3) Consequently, because of the above factors control of these pests is important.
(§4) Certain molecules disclosed in this document were tested against BAW and CEW using procedures described in the following examples. In the reporting of the results, the “BAW & CL Rating Table” was used (See Table Section).
(§5) Trays were covered with a clear self-adhesive cover and held at 25° C., 14:10 light-dark for five to seven days. Percent mortality was recorded for the larvae in each well; activity in the eight wells was then averaged. The results are indicated in the table entitled “Table ABC: Biological Results” (See Table Section).

Data set [2] relates to Cabbage Looper (Trichoplusia ni) ("CL"). In words: Bioassay on Cabbage Looper (CL), 128-well diet tray assay, percent mortality. In kind it is in vivo. The conditions noted are these: for pest or weed control at 50 µg/cm2: Trichoplusia ni, read-out: CL.
Text: as §1, §2, §3, §4
Bioassays on Cabbage Looper in CL
as §5

Each structure is given as a SMILES string.

As to `CC(C)c1ccccc1N1C(=O)CS/C1=N\C(=O)N/C=C/c1ccc(-c2ncn(-c3ccc(OC(F)(F)F)cc3)n2)cc1` [F12], the “BAW rating (percent mortality class)” value in data set [1] is recorded as “A (50-100)”. In addition, in data set [2] (Cabbage Looper, 128-well diet tray assay), the “CL rating (percent mortality class)” value is listed as “A (50-100)”.
For the molecule `CC(C)c1ccccc1N1C(=O)CS/C1=N\C(=O)NCCCc1cccc(-c2ncn(-c3ccc(OC(F)(F)F)cc3)n2)c1` [P120, (Z)-1-(3-(2-isopropylphenyl)-4-oxothiazolidin-2-ylidene)-3-(3-(3-(1-(4-(trifluoromethoxy)phenyl)-1H-1,2,4-triazol-3-yl)phenyl)propyl)urea], the pest or weed control at 50 µg/cm2 in data set [1] and in data set [2] was 50 to 100% throughout.
Turning to `CCC(CNC(=O)/N=C1\SCC(=O)N1c1ccc(F)cc1C(C)C)c1ccc(-c2ncn(-c3ccc(OC(F)(F)F)cc3)n2)cc1` (stereo not drawn) [P1163, (Z)-1-(3-(4-fluoro-2-isopropylphenyl)-4-oxothiazolidin-2-ylidene)-3-(2-(4-(1-(4-(trifluoromethoxy)phenyl)-1H-1,2,4-triazol-3-yl)phenyl)butyl)urea], the pest or weed control at 50 µg/cm2 in data set [1] fell in the range of 50 to 100%.
Turning to `Cc1ccc(C(C)C)c(NC(=S)NC(=O)NCc2ccc(-c3ncn(-c4ccc(OC(F)(F)F)cc4)n3)cc2)c1` [F35, N-[5-methyl-2-(propan-2-yl)phenyl]-N′-(4-{1-[4-(trifluoromethoxy)phenyl]-1H-1,2,4-triazol-3-yl}benzyl)dicarbonimidothioic diamide], the “BAW rating (percent mortality class)” value in data set [1] is “A (50-100)”.
On to `Cc1ccc(C(C)C)c(N2C(=O)CS/C2=N\C(=O)NCCc2cccc(-c3ncn(-c4ccc(OC(F)(F)F)cc4)n3)c2)c1` [P81, (Z)-1-(3-(2-isopropyl-5-methylphenyl)-4-oxothiazolidin-2-ylidene)-3-(3-(1-(4-(trifluoromethoxy)phenyl)-1H-1,2,4-triazol-3-yl)phenethyl)urea], for which the pest or weed control at 50 µg/cm2 in data set [2] fell in the range of 50 to 100%.
For `Cc1ccccc1N1C(=O)CS/C1=N\C(=O)NCCCCc1cccc(-c2ncn(-c3ccc(OC(F)(F)F)cc3)n2)c1` [P170, (Z)-1-(4-oxo-3-(o-tolyl)thiazolidin-2-ylidene)-3-(4-(3-(1-(4-(trifluoromethoxy)phenyl)-1H-1,2,4-triazol-3-yl)phenyl)butyl)urea], the pest or weed control at 50 µg/cm2 in data set [2] is 50 to 100%.
`Cc1cccc(C)c1N1C(=O)CS/C1=N\C(=O)NCCCCc1ccc(-c2ncn(-c3ccc(OC(F)(F)F)cc3)n2)cc1` [P152, (Z)-1-(3-(2,6-dimethylphenyl)-4-oxothiazolidin-2-ylidene)-3-(4-(4-(1-(4-(trifluoromethoxy)phenyl)-1H-1,2,4-triazol-3-yl)phenyl)butyl)urea]: in data set [2], the pest or weed control at 50 µg/cm2 lay in the range of 50 to 100%.
On the same count and under the same terms, for `Cc1ccc(N2C(=O)CS/C2=N\C(=O)NCCCCc2cccc(-c3ncn(-c4ccc(OC(F)(F)F)cc4)n3)c2)c(C(C)C)c1` [P180, (Z)-1-(3-(2-isopropyl-4-methylphenyl)-4-oxothiazolidin-2-ylidene)-3-(4-(3-(1-(4-(trifluoromethoxy)phenyl)-1H-1,2,4-triazol-3-yl)phenyl)butyl)urea] the value was 50 to 100%; for `Cc1ccc(-n2c(C)cs/c2=N\C(=O)NCc2ccc(-c3ncn(-c4ccc(OC(F)(F)F)cc4)n3)cc2)c(C(C)C)c1` [P20, (Z)-1-(3-(2-isopropyl-4-methylphenyl)-4-methylthiazol-2(3H)-ylidene)-3-(4-(1-(4-(trifluoromethoxy)phenyl)-1H-1,2,4-triazol-3-yl)benzyl)urea], 50 to 100%; for `CCc1cccc(C)c1N1C(=O)CS/C1=N\C(=O)NCCCCc1ccc(-c2ncn(-c3ccc(OC(F)(F)F)cc3)n2)cc1` [P153, (Z)-1-(3-(2-ethyl-6-methylphenyl)-4-oxothiazolidin-2-ylidene)-3-(4-(4-(1-(4-(trifluoromethoxy)phenyl)-1H-1,2,4-triazol-3-yl)phenyl)butyl)urea], 50 to 100%.

For the origin of these results see US20140274688A1, “MOLECULES HAVING CERTAIN PESTICIDAL UTILITIES, AND INTERMEDIATES, COMPOSITIONS, AND PROCESSES RELATED THERETO” (DOW AGROSCIENCES LLC, priority 2013, published 2014).
